Measured values as given in patent US8992892B2, “Use of 1-(2,4-dihydroxy-phenyl)-3-(3-hydroxy-4-methoxy-phenyl)-propan-1-one” (SYMRISE AG, priority 2010, dated 2015).

Experiments:
Format in all cases: in vivo
[1] = Bitter reduction of a caffeine solution, rated by a group of experts
Text: In order to quantify the decrease (i.e. the masking or reduction) in bitter impression in a specimen, the bitterness of a 500 ppm caffeinated solution was compared by a group of experts in each case with a specimen containing 500 ppm caffeine and also various concentrations of deoxy hesperetin dihydrochalcone (I) (rating: 1 [not bitter] to 10 [extremely bitter]).
For the assessment, i.e. calculation of the reduction (in %) of the bitter impression in each case the average values of the assessments of the group of experts for the caffeinated solution and the specimen to be compared containing caffeine and a substance to be assessed were used. 2,4-dihydroxybenzoic acid (2,4-DHB) was used here for comparison (reference) in accordance with U.S. Pat. No. 5,643,941.

[2] = Intensification of the sweet impression of a sugar solution, rated by a group of experts; parameters: key to Sweet impression (1-10) Specimen (Sucrose + (I)) / Sweet impression (1-10) Specimen (sucrose + substance): 1 = not sweet, 10 = extremely sweet
Text: In order to quantify the intensification of the sweet impression, in each case the sweetness of a 5% sucrose solution was compared by a group of experts with a specimen containing 5% sucrose and 10 ppm, 25 ppm, 50 ppm or 75 ppm of the deoxy hesperetin dihydrochalcone (I) to be used according to the invention (rating: 1 [not sweet] to 10 [extremely sweet]).
For the assessment, i.e. calculation of the intensification (in %) of the sweet impression in each case the average values of the assessments of the group of experts for the sucrose solution and the specimen for comparison containing sucrose and deoxy hesperetin dihydrochalcone (I) were used.
In order to quantify the intensification of the sweetness impression, in each case the sweetness of a 5% sucrose solution was compared by a group of experts with a specimen containing 5% sucrose and 30 ppm or 50 ppm of a deoxy dihydrochalcone ((rating: 1 [not sweet] to 10 [extremely sweet])).
For the assessment, i.e. calculation of the intensification (in %) of the sweet impression in each case the average values of the assessments of the group of experts for the sucrose solution and the specimen containing sucrose and deoxy dihydrochalcone for comparison were used.

[3] = Bitter reduction of a naringin solution, rated by a group of experts; details: 100 ppm naringin + 50 ppm (I)
Text: (§1) In order to quantify the decrease (i.e. the masking or reduction) in the bitter impression in a specimen, the bitterness of a solution containing either 100 ppm naringin or 250 ppm salicin or 500 ppm epigallocatechin gallate and 75 ppm ascorbic acid was compared by a group of experts in each case with a specimen containing either 100 ppm naringin or 250 ppm salicin or 500 ppm epigallocatechin gallate and 75 ppm ascorbic acid and additionally 50 ppm deoxy hesperetin dihydrochalcone (I) (rating: 1 [not bitter] to 10 [extremely bitter]).
(§2) For the assessment, i.e. calculation of the reduction (in %) of the bitter impression in each case the average values of the assessments of the group of experts for the respective bitter substance solution and the bitter substance solution also containing 50 ppm deoxy hesperetin dihydrochalcone (I) were used.

[4] = Bitter reduction of a salicin solution, rated by a group of experts; details: 250 ppm salicin + 50 ppm (I)
Text: as §1, §2

[5] = Bitter reduction of an epigallocatechin gallate solution, rated by a group of experts; details: 500 ppm epigallocatechin gallate + 75 ppm ascorbic acid + 50 ppm (I)
Text: as §1, §2

[6] = Inherent sweetness in water against a sucrose concentration series (sucrose equivalence), panelists
Text: (§3) The panelists were asked to test each solution of the compound (I) in water against the sucrose series and to rate it according is degree of sweetness (sucrose equivalence). From the results produced by the panelists it was possible to determine the inherent sweetness of the deoxy hesperetin dihydrochalcone (I) for the above-mentioned concentrations. Apart from the sucrose equivalence of the solutions of the compound (I) in water (i.e. without sucrose) the sucrose equivalence in a 5% sucrose solution was also determined with a corresponding quantity of compound (I).

[7] = Sucrose equivalence in a 5% sucrose solution with (I), panelists; details: for Sucrose equivalence in a 5% sucrose solution with (I), Calculation (5 + x) %: purely additive expected value; for synergy or synergistic additional effect: determined vs theoretically expected value
Text: as §3
In all the cases tested a synergistic intensification in sweetness was found when an in itself not sweet concentration of deoxy hesperetin dihydrochalcone (I) was added. So it could in theory be expected that a 5% sucrose solution (i.e. a sucrose solution which sensorially by definition corresponds to 5% sucrose equivalents), containing 10 ppm, 25 ppm, 50 ppm or 75 ppm deoxy hesperetin dihydrochalcone (I), through a purely additive effect of the inherent sweetness of deoxy hesperetin dihydrochalcone (I) (see the sucrose equivalence determined in water) results in a sweetness of approximately 5.13%, 5.33%, 5.58% and again 5.58% sucrose equivalents. […] This corresponds in view of the purely theoretically expected values to a synergy or a synergistic additional effect of approximately 25%, 29%, 47% or 27%. It is noticeable that at the maximum tested concentration of 75 ppm—as might be expected—neither the maximum absolute nor the maximum synergistic intensification was measured.

[8] = as above; details: 0.0100 % by weight (I); purely additive expected value
[9] = 100 ppm substance + 500 ppm caffeine vs caffeinated solution
[10] = 100 ppm substance + 500 ppm caffeine, rating 1 [not bitter] to 10 [extremely bitter]
[11] = Application example 4: 50 ppm deoxy dihydrochalcone + 5% sucrose vs sucrose solution
[12] = Application example 4: 50 ppm deoxy dihydrochalcone + 5% sucrose, rating 1-10

O=C(O)c1ccc(O)cc1O [2,4-DHB, 2,4-dihydroxybenzoic acid, reference compound]
Reduction in bitter impression [1, 9]: 3% | Bitter impression (1-10) Specimen (Caffeine + substance) [1, 10]: 5.0 ± 1.0

COc1cc(CCC(=O)c2ccc(O)cc2O)ccc1O [2′,4,4′-trihydroxy-3-methoxy dihydrochalcone, reference compound]
Intensification of the sweet effect [2, 11]: 8% | Sweet impression (1-10) Specimen (sucrose + substance) [2, 12]: 5.6 ± 1.4

O=C(CCc1ccc(O)cc1)c1ccc(O)cc1O [davidigenin (1), davidigenin, reference compound]
Intensification of the sweet effect ([2]; Application example 4: 30 ppm deoxy dihydrochalcone + 5% sucrose vs sucrose solution): 2% | Sweet impression (1-10) Specimen (sucrose + substance) ([2]; Application example 4: 30 ppm deoxy dihydrochalcone + 5% sucrose, rating 1-10): 5.7 ± 1.4

COc1ccc(CCC(=O)c2ccc(O)cc2O)cc1O [deoxy hesperetin dihydrochalcone (I), 1-(2,4-dihydroxy-phenyl)-3-(3-hydroxy-4-methoxy-phenyl)-propan-1-one]
Reduction in bitter impression ([1]; 10 ppm substance + 500 ppm caffeine vs caffeinated solution): 2% | Bitter impression (1-10) Specimen (Caffeine + substance) ([1]; 10 ppm substance + 500 ppm caffeine, rating 1-10): 4.8 ± 1.6 | Reduction in bitter impression ([1]; 25 ppm substance + 500 ppm caffeine vs caffeinated solution): 26% | Bitter impression (1-10) Specimen (Caffeine + substance) ([1]; 25 ppm substance + 500 ppm caffeine, rating 1-10): 3.8 ± 1.5 | Reduction in bitter impression ([1]; 50 ppm substance + 500 ppm caffeine vs caffeinated solution): 11% | Bitter impression (1-10) Specimen (Caffeine + substance) ([1]; 50 ppm substance + 500 ppm caffeine, rating 1-10): 3.7 ± 1.6 | Reduction in bitter impression [1, 9]: 3% | Bitter impression (1-10) Specimen (Caffeine + substance) [1, 10]: 4.9 ± 1.9 | Reduction in bitter impression [3]: 7% | Bitter impression (1-10) Bitter substance + (I) ([3]; rating 1-10): 6.4 ± 2.4 | Reduction in bitter impression [4]: 15% | Bitter impression (1-10) Bitter substance + (I) ([4]; rating 1-10): 6.5 ± 2.2 | Reduction in bitter impression [5]: 10% | Bitter impression (1-10) Bitter substance + (I) ([5]; rating 1-10): 6.1 ± 2.9 | Intensification of the sweet impression ([2]; 10 ppm (I) + 5% sucrose vs sucrose solution): 21% | Sweet impression (1-10) Specimen (Sucrose + (I)) ([2]; 10 ppm (I) + 5% sucrose, rating 1 [not sweet] to 10 [extremely sweet]): 6.4 ± 1.6 | Intensification of the sweet impression ([2]; 25 ppm (I) + 5% sucrose vs sucrose solution): 42% | Sweet impression (1-10) Specimen (Sucrose + (I)) ([2]; 25 ppm (I) + 5% sucrose, rating 1-10): 6.9 ± 1.9 | Intensification of the sweet impression ([2]; 50 ppm (I) + 5% sucrose vs sucrose solution): 48% | Sweet impression (1-10) Specimen (Sucrose + (I)) ([2]; 50 ppm (I) + 5% sucrose, rating 1-10): 8.2 ± 0.9 | Intensification of the sweet impression ([2]; 75 ppm (I) + 5% sucrose vs sucrose solution): 21% | Sweet impression (1-10) Specimen (Sucrose + (I)) ([2]; 75 ppm (I) + 5% sucrose, rating 1-10): 7.1 ± 1.7 | Intensification of the sweet effect [2, 11]: 48% | Sweet impression (1-10) Specimen (sucrose + substance) [2, 12]: 8.2 ± 0.9 | sweetness-intensifying effect ([2]; own investigations): strong, sweetness-intensifying effect | sweetness intensifying effect compared with structurally related substances (1)-(3) ([2]; see Application example 4): clearly the most powerful compound | Determination of the sucrose equivalence in water (without sucrose) ([6]; 0.0010 % by weight (I) in water): 0.13% | Determination of the sucrose equivalence in water (without sucrose) ([6]; 0.0025 % by weight (I) in water): 0.33% | Determination of the sucrose equivalence in water (without sucrose) ([6]; 0.0050 % by weight (I) in water): 0.58% | Determination of the sucrose equivalence in water (without sucrose) ([6]; 0.0075 % by weight (I) in water): 0.58% | Determination of the sucrose equivalence in water (without sucrose) ([6]; 0.0100 % by weight (I) in water): 0.79% | own sweetness of the compound ([6]; own investigations): not in itself particularly sweet | Sucrose equivalence in a 5% sucrose solution with (I), Determination ([7]; 0.0010 % by weight (10 ppm) (I) in 5% sucrose): 6.4% | Sucrose equivalence in a 5% sucrose solution with (I), Determination ([7]; 0.0025 % by weight (25 ppm) (I) in 5% sucrose): 6.9% | Sucrose equivalence in a 5% sucrose solution with (I), Calculation (5 + x) % ([7]; 0.0025 % by weight (25 ppm) (I)): 5.33% | Sucrose equivalence in a 5% sucrose solution with (I), Determination ([7]; 0.0050 % by weight (50 ppm) (I) in 5% sucrose): 8.2% | Sucrose equivalence in a 5% sucrose solution with (I), Calculation (5 + x) % ([7]; 0.0050 % by weight (50 ppm) (I)): 5.58% | Sucrose equivalence in a 5% sucrose solution with (I), Determination ([7]; 0.0075 % by weight (75 ppm) (I) in 5% sucrose): 7.1% | Sucrose equivalence in a 5% sucrose solution with (I), Calculation (5 + x) % ([7]; 0.0075 % by weight (75 ppm) (I)): 5.58% | synergy or synergistic additional effect ([7]; 10 ppm (I) in 5% sucrose): approximately 25% | synergy or synergistic additional effect ([7]; 25 ppm (I) in 5% sucrose): ~29% | synergy or synergistic additional effect ([7]; 50 ppm (I) in 5% sucrose): ~47% | synergy or synergistic additional effect ([7]; 75 ppm (I) in 5% sucrose): ~27% | Sucrose equivalence in a 5% sucrose solution with (I), Calculation (5 + x) % [8]: 5.79%

COc1ccc(CCC(=O)c2ccc(O)cc2O)cc1 [reference compound]
Intensification of the sweet effect [2, 11]: 12% | Sweet impression (1-10) Specimen (sucrose + substance) [2, 12]: 6.1 ± 1.8
